According to patent publication US20240382482A1, “PLASMA KALLIKREIN INHIBITORS” (TAKEDA PHARMACEUTICAL COMPANY LIMITED, priority 2021, published 2024):
Structures can show the parent of a compound that is named as a salt.

Target: human activated kallikrein enzyme (Homo sapiens, UniProt P03952)
Assay: Inhibition of human activated kallikrein enzyme, fluorogenic peptide substrate assay (500 pM enzyme format)
Assay type: biochemical
Conditions: 500 pM activated kallikrein, 300 μM PFR-AMC substrate, 30 min preincubation, 10 min reaction, room temperature; read-out: Primary Dose Response Assay: Average EC50
How it was run: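 500 pM enzyme preincubated 30 min at room temperature with inhibitor in 20 mM Tris pH 7.5, 150 mM NaCl, 1 mM EDTA, 0.1% PEG-400, 0.1% Triton X-100. Reaction started with 300 μM PFR-AMC and run 10 min at room temperature. AMC fluorescence read at ex 380/em 460 nm, and EC50 values reported as ranges.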

Chain of human activated kallikrein enzyme (P03952 391-638 limits assumed): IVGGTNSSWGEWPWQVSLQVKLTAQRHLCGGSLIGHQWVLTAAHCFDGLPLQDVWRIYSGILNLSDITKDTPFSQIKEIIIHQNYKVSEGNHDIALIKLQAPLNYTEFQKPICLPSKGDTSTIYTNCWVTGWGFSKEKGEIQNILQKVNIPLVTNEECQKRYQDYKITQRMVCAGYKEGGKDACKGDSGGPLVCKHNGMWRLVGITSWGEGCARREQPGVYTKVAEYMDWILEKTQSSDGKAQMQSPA
Chain of human activated kallikrein enzyme (P03952 20-390 partner limits assumed): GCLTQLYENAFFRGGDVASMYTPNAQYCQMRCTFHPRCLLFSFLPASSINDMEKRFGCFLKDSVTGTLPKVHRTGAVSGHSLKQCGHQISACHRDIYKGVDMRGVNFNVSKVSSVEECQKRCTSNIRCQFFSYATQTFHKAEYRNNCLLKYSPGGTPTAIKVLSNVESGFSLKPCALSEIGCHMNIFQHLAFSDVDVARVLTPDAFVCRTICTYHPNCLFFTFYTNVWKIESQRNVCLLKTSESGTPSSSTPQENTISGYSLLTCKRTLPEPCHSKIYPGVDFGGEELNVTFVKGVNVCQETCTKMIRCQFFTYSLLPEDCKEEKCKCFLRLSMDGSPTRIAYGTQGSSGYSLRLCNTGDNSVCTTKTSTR

| EC50 [nM] | Compound |
| --- | --- |
| ≤ 5 | CCOC(=O)NC(=N)c1cc(C)c(CNc2cc(OCc3cn4cc(C5CC5)ccc4n3)nc(C(=O)O)n2)c(C)c1 [Example 88, 4-((6-cyclopropylimidazo[1,2-a]pyridin-2-yl)methoxy)-6-(4-(N-(ethoxycarbonyl)carbamimidoyl)-2,6-dimethylbenzylamino)pyrimidine-2-carboxylic acid] |
| 500 to 9000 | CC(=O)OCONC(=N)c1cc(C)c(CNc2cc(OCc3cn4cc(C5CC5)ccc4n3)ncn2)c(C)c1 [Example 90, ((4-(((6-((6-cyclopropylimidazo[1,2-a]pyridin-2-yl)methoxy)pyrimidin-4-yl)amino)methyl)-3,5-dimethylbenzimidamido)oxy)methyl acetate] |
| 500 to 9000 | COc1ccc(C#N)c(CC(=O)Nc2cc(NCc3cn4cc(C5CC5)ccc4n3)ncn2)c1F [Example 3, 2-(6-cyano-2-fluoro-3-methoxyphenyl)-N-(6-(((6-cyclopropylimidazo[1,2-a]pyridin-2-yl)methyl)amino)pyrimidin-4-yl)acetamide] |
| ≤ 5 | CCOC(=O)C(C)(C)Cc1nc(NCc2c(C)cc(C(=N)N)cc2C)cc(OCc2cn3cc(C4CC4)ccc3n2)n1 [Example 93, ethyl 3-(4-((4-carbamimidoyl-2,6-dimethylbenzyl)amino)-6-((6-cyclopropylimidazo[1,2-a]pyridin-2-yl)methoxy)pyrimidin-2-yl)-2,2-dimethylpropanoate] |
| 500 to 9000 | O=C(Cn1c(=O)oc2ccc(Cl)cc21)Nc1cc(NCc2cn3cc(C4CC4)ccc3n2)ncn1 [Example 123, 2-(5-chloro-2-oxobenzo[d]oxazol-3 (2H)-yl)-N-(6-(((6-cyclopropylimidazo[1,2-a]pyridin-2-yl)methyl)amino)pyrimidin-4-yl)acetamide] |
| ≤ 5 | O=C(Cc1ncn2ccc(Cl)cc12)Nc1cc(Cc2cn3cc(C4CC4)ccc3n2)ncn1 [Example 57, 2-(7-chloroimidazo[1,5-a]pyridin-1-yl)-N-(6-((6-cyclopropylimidazo[1,2-a]pyridin-2-yl)methyl)pyrimidin-4-yl)acetamide formic acid salt] |
| ≤ 5 | O=C(Cc1ncn2ccc(Cl)cc12)Nc1cc(NCc2cn3cc(C4CC4)cc(CN4CCOCC4)c3n2)ncn1 [Example 48, 2-(7-chloroimidazo[1,5-a]pyridin-1-yl)-N-(6-(((6-cyclopropyl-8-(morpholinomethyl)imidazo[1,2-a]pyridin-2-yl)methyl)amino)pyrimidin-4-yl)acetamide] |
| ≤ 5 | Cc1cc(C(=N)N)cc(C)c1CNc1cc(NCc2cn3cc(C4CC4)ccc3n2)ncn1 [Example 99, 4-(((6-(((6-cyclopropylimidazo[1,2-a]pyridin-2-yl)methyl)amino)pyrimidin-4-yl)amino)methyl)-3,5-dimethylbenzimidamide] |
| 5 to 50 | Cc1cc(N)nc(C)c1CNc1cc(C(O)c2cn3cc(C4CC4)ccc3n2)ncn1 (stereo not drawn) [Example 64, (6-(((6-amino-2,4-dimethylpyridin-3-yl)methyl)amino)pyrimidin-4-yl)(6-cyclopropylimidazo[1,2-a]pyridin-2-yl)methanol bisformic acid salt] |
| > 9000 | O=C(Cc1cc(Cl)ccc1-c1nnn[nH]1)Nc1cc(NCc2cn3cc(C4CC4)ccc3n2)ncn1 [Example 10, 2-(5-chloro-2-(1H-tetrazol-5-yl)phenyl)-N-(6-(((6-cyclopropylimidazo[1,2-a]pyridin-2-yl)methyl)amino)pyrimidin-4-yl)acetamide] |
| 500 to 9000 | O=C(Cc1ncn2ccc(Cl)cc12)Nc1cc(C(=O)c2cn3cc(C4CC4)ccc3n2)ncn1 [Example 58, 2-(7-chloroimidazo[1,5-a]pyridin-1-yl)-N-(6-(6-cyclopropylimidazo[1,2-a]pyridine-2-carbonyl)pyrimidin-4-yl)acetamide] |
| 500 to 9000 | NC(=O)c1ccc(Cl)cc1CC(=O)Nc1cc(NCc2cn3cc(C4CC4)ccc3n2)ncn1 [Example 11, 4-chloro-2-(2-((6-(((6-cyclopropylimidazo[1,2-a]pyridin-2-yl)methyl)amino)pyrimidin-4-yl)amino)-2-oxoethyl)benzamide] |
| 500 to 9000 | Nc1nccc2c1CC(C(=O)Nc1cc(NCc3cn4cc(C5CC5)ccc4n3)ccn1)C2 (stereo not drawn) [Example 29, 1-amino-N-(4-(((6-cyclopropylimidazo[1,2-a]pyridin-2-yl)methyl)amino)pyridin-2-yl)-6,7-dihydro-5H-cyclopenta[c]pyridine-6-carboxamide] |
| ≤ 5 | CCOC(=O)c1nc(NCc2cn3cc(C4CC4)ccc3n2)cc(NC(=O)Cc2ncn3ccc(Cl)cc23)n1 [Example 20, ethyl 4-(2-(7-chloroimidazo[1,5-a]pyridin-1-yl)acetamido)-6-(((6-cyclopropylimidazo[1,2-a]pyridin-2-yl)methyl)amino)pyrimidine-2-carboxylate] |
| > 9000 | O=C(Cn1cc(Cl)ccc1=O)Nc1cc(NCc2cn3cc(C4CC4)ccc3n2)ncn1 [Example 119, 2-(5-chloro-2-oxopyridin-1 (2H)-yl)-N-(6-(((6-cyclopropylimidazo[1,2-a]pyridin-2-yl)methyl)amino)pyrimidin-4-yl)acetamide] |
| 5 to 50 | O=C(/C=C/c1cccc(Cl)c1)Nc1cc(NCc2cn3cc(C4CC4)ccc3n2)ncn1 [Example 50, (E)-3-(3-chlorophenyl)-N-(6-(((6-cyclopropylimidazo[1,2-a]pyridin-2-yl)methyl)amino)pyrimidin-4-yl)acrylamide] |
| 500 to 9000 | O=C(Nc1cc(NCc2cn3cc(C4CC4)ccc3n2)ccn1)C1CCc2ccc(Cl)cc2C1 (stereo not drawn) [Example 120, 7-chloro-N-(4-(((6-cyclopropylimidazo[1,2-a]pyridin-2-yl)methyl)amino)pyridin-2-yl)-1,2,3,4-tetrahydronaphthalene-2-carboxamide] |
| 500 to 9000 | O=C(Cn1cnc2ccc(Cl)cc21)Nc1cc(NCc2cn3cc(C4CC4)ccc3n2)ccn1 [Example 28, 2-(6-chloro-1H-benzo[d]imidazol-1-yl)-N-(4-(((6-cyclopropylimidazo[1,2-a]pyridin-2-yl)methyl)amino)pyridin-2-yl)acetamide] |
| 500 to 9000 | CC(C)(C(=O)Nc1cc(NCc2cn3cc(C4CC4)ccc3n2)ncn1)c1ncn2ccc(Cl)cc12 [Example 5, 2-(7-chloroimidazo[1,5-a]pyridin-1-yl)-N-(6-(((6-cyclopropylimidazo[1,2-a]pyridin-2-yl)methyl)amino)pyrimidin-4-yl)-2-methylpropanamide] |
| > 9000 | O=C(Cc1cc(Cl)ccc1Br)Nc1cc(NCc2cn3cc(C4CC4)ccc3n2)ncn1 [Example 51, 2-(2-bromo-5-chlorophenyl)-N-(6-(((6-cyclopropylimidazo[1,2-a]pyridin-2-yl)methyl)amino)pyrimidin-4-yl)acetamide] |
| 500 to 9000 | COc1ccc(CNc2cc(NCc3cn4cc(C5CC5)ccc4n3)ncn2)c(OC)c1 [Example 136, N^4-((6-cyclopropylimidazo[1,2-a]pyridin-2-yl)methyl)-N^6-(2,4-dimethoxybenzyl)pyrimidine-4,6-diamine] |
| ≤ 5 | N#Cc1cc(C2CC2)cn2cc(CNc3cc(NC(=O)Cc4cc(Cl)ccc4-n4cnnn4)ncn3)nc12 [Example 15, 2-(5-chloro-2-(1H-tetrazol-1-yl)phenyl)-N-(6-(((8-cyano-6-cyclopropylimidazo[1,2-a]pyridin-2-yl)methyl)amino)pyrimidin-4-yl)acetamide] |
| 500 to 9000 | CC(C(=O)Nc1cc(NCc2cn3cc(C4CC4)ccc3n2)ncn1)N(C)c1cccc(Cl)c1 (stereo not drawn) [Example 9, 2-((3-chlorophenyl)(methyl)amino)-N-(6-(((6-cyclopropylimidazo[1,2-a]pyridin-2-yl)methyl)amino)pyrimidin-4-yl)propanamide] |
| ≤ 5 | CC(=O)c1nc(NCc2cn3cc(C4CC4)ccc3n2)cc(NC(=O)Cc2ncn3ccc(Cl)cc23)n1 [Example 102, N-(2-acetyl-6-(((6-cyclopropylimidazo[1,2-a]pyridin-2-yl)methyl)amino)pyrimidin-4-yl)-2-(7-chloroimidazo[1,5-a]pyridin-1-yl)acetamide] |
| ≤ 5 | Cc1cc(C(=N)N)cc(C)c1CNc1cc(OCc2cn3cc(C4CC4)cc(CC(=O)O)c3n2)ncn1 [Example 95, 2-(2-((6-(4-carbamimidoyl-2,6-dimethylbenzylamino)pyrimidin-4-yloxy)methyl)-6-cyclopropylimidazo[1,2-a]pyridin-8-yl)acetic acid] |
| 500 to 9000 | N#C/N=C(\NCc1cccc(Cl)c1)Nc1cc(NCc2cn3cc(C4CC4)ccc3n2)ccn1 [Example 128, (E)-1-(3-chlorobenzyl)-2-cyano-3-(4-(((6-cyclopropylimidazo[1,2-a]pyridin-2-yl)methyl)amino)pyridin-2-yl)guanidine] |
| 5 to 50 | O=C(Cc1cc2c(Cl)c[nH]c2cc1F)Nc1cc(NCc2cn3cc(C4CC4)ccc3n2)ccn1 [Example 132, 2-(3-chloro-6-fluoro-1H-indol-5-yl)-N-(4-(((6-cyclopropylimidazo[1,2-a]pyridin-2-yl)methyl)amino)pyridin-2-yl)acetamide] |
| 500 to 9000 | O=C(Cn1c(=O)oc2ccc(Cl)cc21)Nc1cc(NCc2cn3cc(C4CC4)ccc3n2)ccn1 [Example 124, 2-(5-chloro-2-oxobenzo[d]oxazol-3 (2H)-yl)-N-(4-(((6-cyclopropylimidazo[1,2-a]pyridin-2-yl)methyl)amino)pyridin-2-yl)acetamide] |
| 5 to 50 | COc1ccnc(CC(=O)Nc2cc(NCc3cn4cc(C5CC5)cc(N5CCCC5=O)c4n3)ccn2)c1F [Example 24, N-(4-(((6-cyclopropyl-8-(2-oxopyrrolidin-1-yl)imidazo[1,2-a]pyridin-2-yl)methyl)amino)pyridin-2-yl)-2-(3-fluoro-4-methoxypyridin-2-yl)acetamide] |
| 50 to 500 | O[C@H]1C[C@H](c2cn3cc(C4CC4)ccc3n2)N(c2cc(NCc3cnc4[nH]cc(Cl)c4c3)ncn2)C1 [Example 137, (3S,5R)-1-(6-(((3-chloro-1H-pyrrolo[2,3-b]pyridin-5-yl)methyl)amino)pyrimidin-4-yl)-5-(6-cyclopropylimidazo[1,2-a]pyridin-2-yl)pyrrolidin-3-ol] |
